Experimental data reported in patent US6500819B2, “Bicyclolactam compounds, use thereof and intermediates for preparing thereof” (Taiho Pharmaceutical Company Limited, priority 1994, dated 2002).

How the values were obtained:
[1] = Acute toxicity test (LD50), first part; type: in vivo; settings: mouse, in vivo; oral, male ddY mice, observed for 3 days
Wistar rats [2] = assay: Anticonflict test (first part, Test Example 1); type: in vivo; settings: for Frequency of water drinking behavior: 1 h before test, value relative to control = 100; for Anxiolytic effect in the anticonflict test (in words): oral, compounds at doses of 0.001 to 1.0 mg/kg
Method: (§1) Wistar rats (males weighing 140 to 160 g) were used for experiment in groups of 11 to 14.
The test compound, diazepam or buspirone was suspended in a 0.5 % sodiumn carboxymethyl cellulose solution, and the suspension was orally given to the animal in a volume of 5 mnl/kg one hour before the start of experiment.
With reference to a method described in “Process in Anxiolytics and Antidepresants,” ediled by Showa Ueki and Tatsuo Furukawa, Ishiyaku Shuppansha, 56-59 (1981) , the agents were tested using experimental boxes having a grid floor and a metal drinking tube in the floor. No water was supplied to the rats for 48 hours before the experiment. Upon lapse of first 24 hours, each group of rats were placed into the experimental box, permitted access to water for 30 seconds and caused to recognize the metal drinking tube. Upon lapse of further 24 hours with access to water prevented, the rats were placed into the box again and permitted access to water on condition that an electric current was passed between the metal drinking tube and the grid to give an electroshock for every 20 times of water drinking behavior to measure the frequency of water drinking behavior for 3 minutes.
The frequency is expessed by a value relative to the frequency of the control which is taken as 100.

ddY mice [3] = assay: Anticonvulsant effect (pentylenetetrazol-induced convulsion method), first part; type: in vivo; settings: oral, dose of 300 mg/kg
Method: Anticonvulsant Effect (Pentylenetetrazol-Induced Convulsion Method)
(§2) Compound 3, Compound 13, diazepam or buspirone was suspended in a 0.5 % sodium carboxymethyl cellulose solution, and the suspension was orally administered to 3- to 4-week-old male ddY mice (in groups of 6) in a volume of 10 ml/kg one hour before the start of experiment.
The test was conducted with reference to a method described in “Evaluation of Medicinal Efficacies (1), Pharmacological Test Method (1), Basic lectures on Development of Pharmaceuticals,” 167˜172(1971).

ddY mice [4] = assay: Sedative effect (spontaneous locomotor activity), first part; settings: mouse, in vivo, po, 300 mg/kg
Method: (§3) Sedative Effect (Spontaneous Locomotor Activity)
(§4) Compound 3, Compound 13, diazepam or buspirone was suspended in a 0.5 % sodium carboxymethyl cellulose solution, and the suspension was orally administered to 3- to 4-week-old male ddY mice (in groups of 5) in a volume of 10 ml/kg one hour before the start of experiment.
(§5) The test was conducted with reference to a method described in “Evaluation of Medicinal Efficacies (1), Pharmacological Test Method (1), Basic Lectures on Development of Pharmaceuticals,” 50˜54(1971). More specifically, the group of mice were given the test drug and thereafter measured the amount of spontaneous locomotor activity for 10 minutes per mouse rising Animex MK-110 (product of Muromachi Kikai Co., Ltd.).

in vivo = settings: male, ddY, mouse, in vivo
Method: (§6) Effect On Central Nervous System Depressant
a. Pentobarbital Anesthetic Method
Compound 3, Compound 13, diazepam or buspirone was suspended in a 0.5 % sodium carboxymethyl cellulose solution, and the suspension was orally administered to 3- to 4-week-old male ddY mice (in groups of 5 to 10) in a volume of 10 ml/kg one hour before the start of experiment.
The test was conducted with reference to a method described in “Evaluation of Medicinal Efficacies (1), Pharmacological Test Method (1), Basic lectures on Development of Pharmaceuticals,” 144˜145(1971). More specifically, the group of mice were intraperitoneally given pentobarbital at a dose of 40 mg/kg and checked for sleeping time.

Wistar rats [5] = assay: Elevated plus maze test; type: in vivo; settings: for Ratio of entries into open arm: 1 h before test, relative to control = 100
Method: Wistar rats (males weighing 170 to 220 g) were used for experiment in groups of 4 to 9.
The test compound, diazepam or buspirone was suspended in a 0.5 %) sodium carboxymethyl cellulose solution, and the suspension was orally given to the animal in a volume of 5 ml/kg one hour before the start of experiment.
The test was conducted using an experimental device, Model BTA-2, Behavior Analysis System (product of Muromachi Kikai Co., Ltd.) with reference to a method described in Psychopharmacology, 99, 48˜53(1989). […] Each group of rats orally given the test drug were placed in the center square, and the behavior of the animals was recorded for 5 minutes using a behavior analyzer. The ratio of the number of entries into the open arm to the number of entries into all the arms was determined for evaluating the anxiolytic effect.
The ratio of entries into the open arm is expressed by a value relative to the ratio attained by the control which is taken as 100.

ddY mice [6] = assay: Muscle relaxant effect (traction method), first part; settings: mouse, in vivo, po, 300 mg/kg
Method: (§7) Muscle Relaxant Effect (Traction Method)
as §4
(§8) With reference to a method described in Japan. J. Pharmacol., 49. 337˜349(1989), the foreleg of the mouse was hung on a horizontal wire, having a diameter of 1.2 mm and fixed at a level of 30 cm, three times consecutively. […] Thus, ED5 0 was determined for evaluation. […] Diazepam and buspirone were 2.2 mg/kg and 427.8 mg/kg, respectively, in ED5 0.

ddY mice [7] = assay: Effect on central nervous system depressant: ethanol enhancing method, first part; settings: mouse, in vivo, po, 300 mg/kg
Method: as §6
(§9) b. Ethanol Enhancing Method
as §2
(§10) The test was conducted with reference to a method described in Japan. J. Pharmacol., 49, 337˜349(1989). More specifically, the group of mice were intraperitoneally given 25 % ethanol at a dose of 20 ml/kg and checked for the time interval between loss and recovery of the righting reflex.

[8] = Sedative effect (spontaneous locomotor activity), first part; settings: male, ddY, mouse, in vivo, po
Method: as §3, §4, §5

Wistar rats [9] = assay: Anticonflict test (second part, relieving rate of anxiety); type: in vivo; settings: oral, dose of 1.0 mg/kg
Method: as §1
No water was supplied to the rats for 48 hours before the experiment. Upon lapse of first 24 hours, each group of rats were placed into the experimental box, permitted access to water for 30 seconds and caused to recognize the metal drinking tube. Upon lapse of further 24 hours with access to water prevented, the rats were placed into the box again and permitted access to water on condition that an electric current was passed between the metal drinking tube and the grid to give an electroshock for every 20 times of water drinking behavior to measure the frequency of water drinking behavior for 3 minutes. Anxiolytic effect was evaluated as relieving rate of anxiety as calculated by the following equation.

ddY mice [10] = assay: Sedative effect (spontaneous locomotor activity), second part; settings: oral, mice, 1 h before test
Method: Sedative Effect (Spontaneous locomotor activity)
(§11) Compound 1′a-1, the comparison compound, diazepam or buspirone was suspended in a 0.5% sodium carboxymethyl cellulose solution, and the suspension was orally administered to 3- to 4-week-old male ddY mice (in groups of 5) in a volume of 10 ml/kg one hour before the start of experiment.
The test was conducted with reference to a method described in “Evaluation of Medicinal Efficacies (1), Pharmacological Test Method (I), Basic Lectures on Development of Pharmaceuticals,” 50˜54(1971). More specifically, the group of mice were given the test drug and thereafter measured the amount of spontaneous locomotor activity for 10 minutes per mouse using Animex MK-110 (Muromachi Kikai Co., Ltd.).

[11] = Muscle relaxant effect (traction method), second part; settings: male, ddY, mouse, in vivo, po
Method: as §7, §11, §8

[12] = Muscle relaxant effect (traction method), first part; settings: male, ddY, mouse, in vivo, po
Method: as §7, §4, §8

[13] = Effect on central nervous system depressant (ethanol enhancing method), second part; settings: male, ddY, mouse, in vivo
Method: Effect on central nervous system depressant (Ethanol enhancing method)
Compound 1′a-1, the comparison compound, diazepam or buspirone was suspended in a 0.5% sodium carboxymethyl cellulose solution, and the suspension was orally administered to 3- to 4-week-old male ddY mice (in groups of 6) in a volume of 10 ml/kg one hour before the start of experiment.
The test was conducted with reference to a method described in Japan. J. Pharmacol., 49, 337˜349(1989). More specifically, the group of mice were intraperitoneally given 25% ethanol at a dose of 20 ml/kg and checked for the time interval between loss and recovery of the righting reflex.

[14] = Effect on central nervous system depressant: ethanol enhancing method, first part; settings: male, ddY, mouse, in vivo
Method: as §6, §9, §2, §10

ddY mice [15] = assay: Anticonvulsant effect (pentylenetetrazol-induced convulsion method), second part; type: in vivo; settings: Mus musculus, 1 h, read-out: ED50, anticonvulsant effect (no death within 60 minutes)
Method: Anticonvulsant Effect (Pentylenetetrazol-induced Convulsion Method)
Compound 1′a-1, the comparison compound, diazepam or j buspirone was suspended, in a 0.5% sodium carboxymethyl cellulose solution, and the suspension was orally administered to 3- to 4-week-old maple ddY mice (in groups of 6) in a volume of 10 ml/kg one hour before the start of experiment.
The test was conducted with reference to a method described in “Evaluation of Medicinal Efficacies (1), Pharmacological Test Method (I), Basic Lectures on Development of Pharmaceuticals,” 167˜172(1971).

## COc1ccc(C(=O)N2C(=O)CCC3CCCCC32)cc1 (stereo not drawn) [Compound 1, 2-(4-methoxybenzoyl)-2-azabicyclo[4.4.0)decane-3-one]
[1]
  LD50 at 3 days: > 2000 mg/kg
Wistar rats [2]; dose 0.01 mg/kg oral
  Frequency of water drinking behavior: 138%
Wistar rats [2]; dose 0.1 mg/kg oral
  Frequency of water drinking behavior: 140%
Wistar rats [2]; dose 1.0 mg/kg oral
  Frequency of water drinking behavior: 122%
Wistar rats [2]
  Anxiolytic effect in the anticonflict test (in words): increase in the frequency of water drinking behavior

## COc1ccc(C(=O)N2C(=O)CCC3CCCC32)cc1 (stereo not drawn) [Compound 3, 2-(4-methoxybenzoyl)-2-azabicyclo[4.3.0]nonane-3-one]
ddY mice [3]
  Anticonvulsant effect (in words): no anticonvtilsant effect
ddY mice [4]
  Sedative effect (in words): no sedative effect
In vivo
  ED50 at 1 h: ≥ 300 mg/kg
[1]
  LD50 at 3 days: > 2000 mg/kg
Wistar rats [5]; dose 0.001 oral
  Ratio of entries into open arm: 195
Wistar rats [5]; dose 0.01 oral
  Ratio of entries into open arm: 219
Wistar rats [5]; dose 0.1 oral
  Ratio of entries into open arm: 248
Wistar rats [5]; oral, dose of 0.001 mg/kg or greater
  Anxiolytic effect in the elevated plus maze (in words): increase in the number of entries into the open arm
Wistar rats [2]; dose 0.001 mg/kg oral
  Frequency of water drinking behavior: 126%
Wistar rats [2]; dose 0.01 mg/kg oral
  Frequency of water drinking behavior: 162%
Wistar rats [2]; dose 0.1 mg/kg oral
  Frequency of water drinking behavior: 164%
Wistar rats [2]; dose 1.0 mg/kg oral
  Frequency of water drinking behavior: 166%
Wistar rats [2]
  Anxiolytic effect in the anticonflict test (in words): increase in the frequency of water drinking behavior
ddY mice [6]
  Muscle relaxant effect (in words): no muscle relaxant effect
ddY mice [7]
  Ethanol enhancing effect (in words): no ethanol enhancing effect

## COc1ccc(C(=O)N2C(=O)CC3CCCCC32)cc1 (stereo not drawn) [Compound 11, 7-(4-methoxybenzoyl)-7-azabicyclo[4.3.0]nonane-8-one]
[1]
  LD50 at 3 days: > 2000 mg/kg
Wistar rats [2]; dose 1.0 mg/kg oral
  Frequency of water drinking behavior: 133%
Wistar rats [2]
  Anxiolytic effect in the anticonflict test (in words): increase in the frequency of water drinking behavior

## CN1C(=O)CN=C(c2ccccc2)c2cc(Cl)ccc21 [Diazepam, diazepam, reference compound]
[8]
  ED50 at 1 h: 1.7 mg/kg
Wistar rats [9]
  Anxiolytic effect in the anticonflict test (in words): almost ineffective
ddY mice [10]
  ED6O, sedative effect (spontaneous locomotor activity up to 50% of control): 1.7 mg/kg
In vivo
  ED50 at 1 h: 0.53 mg/kg
Wistar rats [5]; dose 1.0 oral
  Ratio of entries into open arm: 103
Wistar rats [5]; dose 10.0 oral
  Ratio of entries into open arm: 144
Wistar rats [2]; dose 1.0 mg/kg oral
  Frequency of water drinking behavior: 96%
Wistar rats [2]
  Anxiolytic effect in the anticonflict test (in words): almost ineffective
[11]
  ED50 at 1 h: 2.2 mg/kg
[12]
  ED50 at 1 h: 2.2 mg/kg
[13]
  ED50 at 1 h: 0.48 mg/kg
[14]
  ED50 at 1 h: 0.48 mg/kg
ddY mice [15]
  ED50: 0.35 mg/kg
